Literature values, collected in patent US20160335412A1, “SYSTEMS AND METHODS FOR PREDICTING AND ADJUSTING THE DOSAGE OF MEDICINES IN INDIVIDUAL PATIENTS” (priority 2013, published 2016).

| Structure (SMILES) | 'therapeutic range' of plasma drug concentrations (has been established, treatment of schizophrenia) | 'therapeutic range' of plasma concentrations (documented in the literature, lower limit = no response in most patients, upper limit = toxicity in most) |
| --- | --- | --- |
| Cc1cc2c(s1)Nc1ccccc1N=C2N1CCN(C)CC1 [olanzapine] | 20 to 80 ng/mL |  |
| Cn1c(=O)c2[nH]cnc2n(C)c1=O [theophylline] |  | 5-10 micrograms per ml plasma |
